Measurements published in patent publication US20150299125A1, “PRODRUG BIPYRIDYLAMINOPYRIDINES AS SYK INHIBITORS” (MERCK SHARP & DOHME CORP., priority 2012, published 2015).
Values after ≈ are worked out from the molar mass of the structure shown.

Legend:
[1] = Conversion of prodrug to parent in in vitro biorelevant gastrointestinal tract media; format: in vitro ADME; conditions: 37° C.; for Conversion in SGF, time: simulated gastric fluid
Protocol: Conversion of Prodrug to Parent in In Vitro Biorelevant Gastrointestinal Tract Media: The likely stability of prodrugs in the gastrointestinal tract can be estimated by incubating a prodrug in simulated gastric and intestinal fluids; compounds were measured for stability in simulated gastric fluid (SGF), fasted state simulated intestinal fluid (FaSSIF), and fasted state simulated intestinal fluid plus pancreatin (FaSSIF+pancreatin). Prodrug stock solutions were made by diluting 2 mg of compound in 200 μL DMSO. A 10 mg/mL Pancreatin in FaSSIF stock solution was made by dissolving 10 mg Pancreatin in 1 mL FaSSIF. Samples were prepared by diluting 10 μL of compound stock solution into 990 μL of biorelevant media (990 μL SGF, 990 μL FaSSIF, or 940 μL FaSSIF plus 50 μL Pancreatin stock) in a 2 mL HPLC vial and vortexing the mixture for a few seconds. The samples were incubated at 37° C. and aliquots were removed for up to 24 hours and injected directly on an HPLC to determine the conversion of prodrug to active drug. In the case of compound precipitation upon sample preparation, an individual sample was prepared for each desired time point and the entire sample was diluted with a known volume of acetonitrile/water (50/50) to ensure compound dissolution before HPLC analysis.

[2] = biological target: T1, recombinant human GST-Syk (Homo sapiens, UniProt P43405); test: Homogeneous Time-Resolved Fluorescence (HTRF) assay for the recombinant human Syk enzyme; format: biochemical; conditions: recombinant human GST-Syk 5 pM, ATP 25 μM, read-out: IC50
T1 construct: purchased Carna Biosciences 08-176
Procedure, shortened: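 HTRF read-out, taken 30 min after adding 2 nM europium anti-pTyr antibody plus 70 nM streptavidin-APC in 40 mM EDTA/Tris pH 7.5, detects peptide phosphorylated by GST-tagged human Syk during a 45-min room-temperature reaction.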

[3] = Solubility in biorelevant fasted state simulated intestinal fluid (FaSSIF); format: physicochemical; conditions: 25 °C, fassif, kinetic from dmso stock, Solubility
Procedure, shortened: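 Compound from 10 mM DMSO stock diluted into FaSSIF (maximum solubility approximately 200 μM), equilibrated, then filtered by centrifugation through a 0.45 μm polypropylene membrane. Filtrate and a 100 μM standard analysed by HPLC/DAD; solubility = (sample peak area/standard peak area) × standard concentration.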

[4] = Conversion of prodrug to parent in intestine homogenate; format: in vitro ADME; conditions: prodrug 1 μM, intestine S9 1 mg protein/mL, 37° C., pH 7.4, 2 h
Protocol: Conversion of Prodrug to Parent in Intestine Homogenate:
(§1) The likely stability of prodrugs in the intestine can be estimated by incubating a prodrug with intestine homogenate. Incubations of prodrugs (1 μM) with intestine S9 (1 mg protein/mL) were carried out at 37° C. in a phosphate buffer, pH 7.4. Control incubations contained BSA (1.1 mg/mL) instead of intestine S9 microsomes. Aliquots were removed at 0, 5, 15, 30, 60 and 120 min, treated with 4 volumes of acetonitrile containing 2% formic acid and an internal standard, and centrifuged. The supernatants were analyzed by LC-MS/MS for prodrug disappearance and appearance of active drug. The half-life of the prodrug was calculated from the % prodrug remaining at different time points calculated from on the peak area ratio relative to t=0. The amount of active drug generated at the different time points was determined using a standard curve.

[5] = Conversion of prodrug to parent in liver homogenate; format: in vitro ADME; conditions: prodrug 1 μM, liver S9 1 mg protein/mL, 37° C., pH 7.4, 2 h
Protocol: Conversion of Prodrug to Parent in Liver Homogenate:
as §1, with “liver” for “intestine”

Blood stability assay = format: in vitro ADME; conditions: whole blood; human blood, 37° C.
Protocol: The likely stability of prodrugs in the blood can be estimated by incubating a prodrug with blood. A prodrug stock solution was prepared at 10 mM in DMSO and working solutions (100 μM) containing the prodrug were prepared by diluting a suitable amount of the stock solution with acetonitrile/water (50/50). 5 μL of the working solution were added to 495 μL of pre-warmed blood (at 37° C.). After vortexing and mixing, 50 μL of the spiked blood sample were taken for the 0 time point and transferred to another vial containing 200 μL of quenching solution (labetalol, alprazolam and diclofenac in 100% acetonitrile) ensuring that the vial is lidded to prevent evaporation and kept on ice. While keeping the spiked blood sample at 37° C. at the following timepoints (0.25, 0.5, 1, 2 and 3 h) 5 additional aliquots (50 μL) were sampled and mixed with the quenching solution. At the end of the experiment the quenched samples were vortexed for 2 minutes and centrifuged for 10 minutes at 4000 rpm. The supernatant (100 μL) was then transferred and collected into a new 96-well plate and injected into the LC-MS/MS for analysis. For each test compound, the area ratios at each time point to the 0 hour area ratio were compared and converted to a percentage remaining. The percentage remaining were then plotted against time (h) and half life generated using the following equation t½=0.693/kel. Where kel is the elimination rate constant which is determined from the concentration versus time curve by linear regression at the terminal phase of the semi-logarithmic plot.

| SMILES | Conversion in FaSSIF + Pancreatin, time ([1]; 3 h) | Conversion in FaSSIF, time ([1]; 5 h) | Conversion in SGF, time ([1]; 5 h) | IC50 [2] [nM] | solubility [3] [µM] | Prodrug concentration at 2 h [4] [µM] | Prodrug concentration at 2 h [5] [µM] | half-life at 1 μM (Blood stability assay) [min] | Conversion in FaSSIF, time ([1]; 3 h) |
| --- | --- | --- | --- | --- | --- | --- | --- | --- | --- |
| Cc1cc(Nc2cc(C(F)F)ccn2)nc(-c2ccc([C@](C)(O)[C@H]3CC[C@H](C(=O)OCOC(=O)OCCCCCCN(C)C)CC3)nc2)c1 [Example 2-7, [({[6-(dimethylamino)hexyl]oxy}carbonyl)oxy]methyl trans-4-[(1R)-1-(6-{[4-(difluoromethyl)pyridin-2-yl]amino}-4-methyl-2,3′-bipyridin-6′-yl)-1-hydroxyethyl]cyclo hexanecarboxylate] | 20%, 3 h | 0%, 5 h | 0%, 5 h | 78 | 119 (≈ 81.4 µg/mL) | – | – | – | – |
| Cc1cc(Nc2cc(C(F)F)ccn2)nc(-c2ccc([C@](C)(O)[C@H]3CC[C@H](C(=O)OCCS(C)(=O)=O)CC3)nc2)c1 [Example 1-8, 2-(methylsulfonyl)ethyl trans-4-[(1R)-1-(6-{[4-(difluoromethyl)pyridin-2-yl]amino}-4-methyl-2,3′-bipyridin-6′-yl)-1-hydroxyethyl] cyclohexanecarboxylate] | – | – | – | 4 | – | – | – | 22 | – |
| Cc1cc(Nc2cc(C(F)F)ccn2)nc(-c2ccc([C@](C)(O)[C@H]3CC[C@H](C(=O)OCOC(=O)OCCOCCOCCOCCOP(=O)(O)O)CC3)nc2)c1 [Example 8-1, 17,17-Dihydroxy-17-oxido-3-oxo-2,4,7,10,13,16-hexaoxa-17λ^5-phosphaheptadec-1-yl trans-4-[(1R)-1-(6-{[4-(difluoromethyl)pyridin-2-yl]amino}-4-methyl-2,3′-bipyridin-6′-yl)-1-hydroxyethyl]cyclohexanecarboxylate] | – | – | – | < 0.5 | 154 (≈ 125 µg/mL) | 0 | 0 | – | – |
| Cc1cc(Nc2cc(C(F)F)ccn2)nc(-c2ccc([C@](C)(O)[C@H]3CC[C@H](C(=O)OCOC(=O)C4CCNCC4)CC3)nc2)c1 [Example 3-1] | 100%, 3 h | – | 0%, 5 h | 27 | 147 (≈ 91.7 µg/mL) | – | – | – | 100%, 3 h |
| COCCN(C)C(=O)OC(C)OC(=O)[C@H]1CC[C@H]([C@@](C)(O)c2ccc(-c3cc(C)cc(Nc4cc(C(F)F)ccn4)n3)cn2)CC1 (mixture of isomers) [Example 4-1, 1-{[(2-methoxyethyl)(methyl)carbamoyl]oxy}ethyl trans-4-[(1R)-1-(6-{[4-(difluoromethyl)pyridin-2-yl]amino}-4-methyl-2,3′-bipyridin-6′-yl)-1-hydroxyethyl]cyclohexanecarboxylate] | – | – | – | 20.7 | – | 0.539 | 0 | – | – |
| CCOCCOCCOC(=O)OC(OC(=O)[C@H]1CC[C@H]([C@@](C)(O)c2ccc(-c3cc(C)cc(Nc4cc(C(F)F)ccn4)n3)cn2)CC1)C(C)C (stereo partly drawn) [Example 2-17, 1-(1-methylethyl)-3-oxo-2,4,7,10-tetraoxadodec-1-yl trans-4-[(1R)-1-(6-{[4-(difluoromethyl)pyridin-2-yl]amino}-4-methyl-2,3′-bipyridin-6′-yl)-1-hydroxyethyl]cyclo hexanecarboxylate] | – | – | – | < 0.5 | – | 0.371 | 0 | – | – |
| CNCCCOC(=O)[C@H]1CC[C@H]([C@@](C)(O)c2ccc(-c3cc(C)cc(Nc4cc(C(F)F)ccn4)n3)cn2)CC1 [Example 1-22, 3-(methylamino)propyl trans-4-[(1R)-1-(6-{[4-(difluoromethyl)pyridin-2-yl]amino}-4-methyl-2,3′-bipyridin-6′-yl)-1-hydroxyethyl] cyclohexanecarboxylate] | 100%, 3 h | 0%, 5 h | 0%, 5 h | 1.8 | 183 (≈ 101 µg/mL) | – | – | – | – |
| Cc1cc(Nc2cc(C(F)F)ccn2)nc(-c2ccc([C@](C)(O)[C@H]3CC[C@H](C(=O)OCOC(=O)OCCCS(C)(=O)=O)CC3)nc2)c1 [Example 7-2, ({[3-(Methylsulfonyl)propoxy]carbonyl}oxy)methyl trans-4-[(1R)-1-(6-{[4-(difluoromethyl)pyridin-2-yl]amino}-4-methyl-2,3′-bipyridin-6′-yl)-1-hydroxyethyl]cyclohexanecarboxylate] | – | – | – | 7.5 | – | 0.092 | 0.12 | – | – |

More lines, now with the values ahead:

| Conversion in FaSSIF + Pancreatin, time ([1]; 3 h) | Conversion in FaSSIF, time ([1]; 5 h) | Conversion in SGF, time ([1]; 5 h) | IC50 [2] [nM] | solubility [3] [µM] | Prodrug concentration at 2 h [4] [µM] | Prodrug concentration at 2 h [5] [µM] | half-life at 1 μM (Blood stability assay) [min] | Conversion in FaSSIF, time ([1]; 3 h) | SMILES |
| --- | --- | --- | --- | --- | --- | --- | --- | --- | --- |
| 20%, 3 h | 0%, 5 h | 0%, 5 h | < 0.5 | 161 (≈ 97.7 µg/mL) | 0.249 | 0.434 | – | – | Cc1cc(Nc2cc(C(F)F)ccn2)nc(-c2ccc([C@](C)(O)[C@H]3CC[C@H](C(=O)OCCOP(=O)(O)O)CC3)nc2)c1 [Example 8-2, 2-(phosphonooxy)ethyl trans-4-[(1R)-1-(6-{[4-(difluoromethyl)pyridin-2-yl]amino}-4-methyl-2,3′-bipyridin-6′-yl)-1-hydroxyethyl]cyclohexane-carboxylate] |
| 100%, 3 h | 0%, 5 h | 0%, 5 h | 1.6 | 131 (≈ 75.9 µg/mL) | – | – | – | – | Cc1cc(Nc2cc(C(F)F)ccn2)nc(-c2ccc([C@](C)(O)[C@H]3CC[C@H](C(=O)O[C@H]4CC[C@H](N)CC4)CC3)nc2)c1 [Example 1-23, trans-4-aminocyclohexyl trans-4-[(1R)-1-(6-{[4-(difluoromethyl)pyridin-2-yl]amino}-4-methyl-2,3′-bipyridin-6′-yl)-1-hydroxyethyl] cyclohexanecarboxylate] |
| – | – | – | 4.2 | 56 (≈ 32.1 µg/mL) | 0.385 | 0 | – | – | Cc1cc(Nc2cc(C(F)F)ccn2)nc(-c2ccc([C@](C)(O)[C@H]3CC[C@H](C(=O)OCC[S@@+](C)[O-])CC3)nc2)c1 (single isomer, unassigned) [Example 7-1a] |
| 100%, 3 h | 0%, 5 h | 0%, 5 h | 2.3 | 167 (≈ 96.8 µg/mL) | – | – | – | – | Cc1cc(Nc2cc(C(F)F)ccn2)nc(-c2ccc([C@](C)(O)[C@H]3CC[C@H](C(=O)OCC4CCNCC4)CC3)nc2)c1 [Example 1-21, piperidin-4-ylmethyl trans-4-[(1R)-1-(6-{[4-(difluoromethyl)pyridin-2-yl]amino}-4-methyl-2,3′-bipyridin-6′-yl)-1-hydroxyethyl] cyclohexanecarboxylate] |
